# Laboratory results: ChEMBL document CHEMBL1124651, “Cytostatic trans-platinum(II) complexes” (J Med Chem, 1989)
# Where “and” joins values, the source holds several entries; their conditions need not be identical. Equal values may be shown once.
# Tests used:
# Mus musculus = assay: Maximum dose at which all tested BDF1 mice survived after 30 days of intraperitoneal dosage; format: functional
# P388 = assay: Anti tumor activity expressed as median survival time of treated BDF1 mice bearing P388 leukemia cells versus untreated controls; format: functional, cell-based; details: Mus musculus
# L1210 = assay: Compound was evaluated for its inhibitory dose against L1210 leukemia cell line; format: functional, cell-based; details: Mus musculus
Substance,LD0 (Mus musculus),T/C (P388),ID50 (L1210)
CISPLATIN,30 µM/kg,205%,2.3 µM
Cis-[PtCl2(gamma-pic)2] complex,–,105% and 119%,–
TRANSPLATIN,167 µM/kg,116%,67 µM
